Test results from patent US20220389061A1, “IMMUNOMODULATORS” (priority 2019, published 2022).
Starred links: 1 amine or outer side, 2 acyl side, 3 side chain; linkers in the order of their positions; H or OH if unused. Positions of bridges follow the written chain, without caps; N, C: chain ends. Non-standard residues stand in square brackets, D forms with d. Residues, ends and D or L forms follow the SMILES beside them. Groups on a side chain read outwards from the residue. *: point of attachment. Trp(1-CH2CO2Me) = COC(=O)Cn1cc(C[C@H](N)C(=O)O)c2ccccc21; Trp(1-CH2COOH) = N[C@@H](Cc1cn(CC(=O)O)c2ccccc12)C(=O)O; Acridine9carbonyl = O=C(c1c2ccccc2nc2ccccc12)*; Benzofuran(2-CO) = O=C(c1cc2ccccc2o1)*; NH(2-CF3-phenyl) = FC(F)(F)c1ccccc1N*; Hyp = O=C(O)[C@@H]1C[C@@H](O)CN1; X34 = O=C(c1c2ccccc2cc2ccccc12)*; X10 = S=C(Nc1ccc(N2CCOCC2)cc1)*; X60 = Cc1cc2cc(NC(=S)*)ccc2o1; NMeNle = CCCC[C@H](NC)C(=O)O; X16 = S=C(Nc1ccc2c(c1)OCO2)*; X93 = c1cc2c(c(N*)c1)CCCC2; NMeA = CN[C@@H](C)C(=O)O; X71 = c1cc2c(cc1N*)OCCO2; βNA = c1ccc2cc(N*)ccc2c1; Dab = NCC[C@H](N)C(=O)O; X39 = CCCCOc1ccc(N*)cc1; X45 = c1ccc2sc(N*)cc2c1; Dap = NC[C@H](N)C(=O)O; CO = O=C([*:1])[*:2]

Target: T1, PD-1/PD-L1 (Homo sapiens, UniProt Q9NZQ7)
T1 construct: TVMV protease site linker (C); made in house; host or cells: HEK293T cells
Test: PD-1/PD-L1 Homogenous Time-Resolved Fluorescence (HTRF) binding assay
Conditions: not given
Outline: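 Compounds preincubated 15 min with PD-L1-His (10 nM final), then PD-1-Ig (20 nM final) added for 15 min in dPBS with 0.1% BSA, 0.05% Tween-20. Detection by Eu-cryptate anti-Ig (1 nM) and APC anti-His (20 nM) HTRF.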

T1 sequence (Q9NZQ7 18-239): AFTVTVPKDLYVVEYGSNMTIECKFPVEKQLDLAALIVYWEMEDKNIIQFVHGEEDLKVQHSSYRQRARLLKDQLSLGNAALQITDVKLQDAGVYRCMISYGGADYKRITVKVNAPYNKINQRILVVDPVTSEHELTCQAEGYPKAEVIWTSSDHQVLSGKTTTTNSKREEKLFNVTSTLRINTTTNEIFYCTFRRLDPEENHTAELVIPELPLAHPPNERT

Row | SMILES | IC50
1 | CCCC[C@H]1C(=O)N(C)[C@@H](CCCC)C(=O)N[C@@H](CC(C)C)C(=O)N[C@H](C(=O)NCC(N)=O)CSCC(=O)N[C@@H](Cc2ccc(O)cc2)C(=O)N(C)[C@@H](C)C(=O)N[C@@H](CC(N)=O)C(=O)N2CCC[C@H]2C(=O)N[C@@H](CNC(=O)Nc2cccc3c2CCCC3)C(=O)N[C@@H](CC(C)C)C(=O)N2C[C@H](O)C[C@H]2C(=O)N[C@@H](Cc2c[nH]c3ccccc23)C(=O)N[C@@H](CCNC(=O)Nc2cccc3c2CCCC3)C(=O)N[C@@H](Cc2cn(CC(=O)O)c3ccccc23)C(=O)N1C [Example 3015] ({CH2CO}-Y[NMeA]NP[Dap]([CO-X93])L[Hyp]W[Dab]([CO-X93])[Trp(1-CH2COOH)][NMeNle][NMeNle]LCG-NH2; thioether N-14) | 0.7 nM
2 | CCCC[C@H]1C(=O)N(C)[C@@H](CCCC)C(=O)N[C@@H](CC(C)C)C(=O)N[C@H](C(=O)NCC(N)=O)CSCC(=O)N[C@@H](Cc2ccc(O)cc2)C(=O)N(C)[C@@H](C)C(=O)N[C@@H](CC(N)=O)C(=O)N2CCC[C@H]2C(=O)N[C@@H](CNC(=O)Nc2ccc3ccccc3c2)C(=O)N[C@@H](CC(C)C)C(=O)N2C[C@H](O)C[C@H]2C(=O)N[C@@H](Cc2c[nH]c3ccccc23)C(=O)N[C@@H](CCN)C(=O)N[C@@H](Cc2cn(CC(=O)O)c3ccccc23)C(=O)N1C [Example 3043] ({CH2CO}-Y[NMeA]NP[Dap]([CO-βNA])L[Hyp]W[Dab][Trp(1-CH2COOH)][NMeNle][NMeNle]LCG-NH2; thioether N-14) | 3.2 nM

Same assay, conditions: PD-L1-His 10 nM pre-incubated with inhibitor, PD-1-Ig 20 nM; read-out: HTRF IC50

Row | IC50 | SMILES
3 | 3 nM | CCCC[C@H]1C(=O)N(C)[C@@H](CCCC)C(=O)N[C@@H](CC(C)C)C(=O)N[C@H](C(=O)NCC(N)=O)CSCC(=O)N[C@@H](Cc2ccc(O)cc2)C(=O)N(C)[C@@H](C)C(=O)N[C@@H](CC(N)=O)C(=O)N2CCC[C@H]2C(=O)N[C@@H](CNC(=S)Nc2ccc(N3CCOCC3)cc2)C(=O)N[C@@H](CC(C)C)C(=O)N2C[C@H](O)C[C@H]2C(=O)N[C@@H](Cc2c[nH]c3ccccc23)C(=O)N[C@@H](CCNC(=S)Nc2ccc(N3CCOCC3)cc2)C(=O)N[C@@H](Cc2cn(CC(=O)O)c3ccccc23)C(=O)N1C [Example 1127] ({CH2CO}-Y[NMeA]NP[Dap](X10)L[Hyp]W[Dab](X10)[Trp(1-CH2COOH)][NMeNle][NMeNle]LCG-NH2; thioether N-14)
4 | 3 nM | CCCC[C@H]1C(=O)N(C)[C@@H](CCCC)C(=O)N[C@@H](CC(C)C)C(=O)N[C@H](C(=O)NCC(N)=O)CSCC(=O)N[C@@H](Cc2ccc(O)cc2)C(=O)N(C)[C@@H](C)C(=O)N[C@@H](CC(N)=O)C(=O)N2CCC[C@H]2C(=O)N[C@@H](CNC(=O)Nc2ccc3c(c2)OCCO3)C(=O)N[C@@H](CC(C)C)C(=O)N2C[C@H](O)C[C@H]2C(=O)N[C@@H](Cc2c[nH]c3ccccc23)C(=O)N[C@@H](CCNC(=O)Nc2ccc3c(c2)OCCO3)C(=O)N[C@@H](Cc2cn(CC(=O)O)c3ccccc23)C(=O)N1C [Example 3059] ({CH2CO}-Y[NMeA]NP[Dap]([CO-X71])L[Hyp]W[Dab]([CO-X71])[Trp(1-CH2COOH)][NMeNle][NMeNle]LCG-NH2; thioether N-14)
5 | 11 nM | CCCC[C@H]1C(=O)N(C)[C@@H](CCCC)C(=O)N[C@@H](CC(C)C)C(=O)N[C@H](C(=O)NCC(N)=O)CSCC(=O)N[C@@H](Cc2ccc(O)cc2)C(=O)N(C)[C@@H](C)C(=O)N[C@@H](CC(N)=O)C(=O)N2CCC[C@H]2C(=O)N[C@@H](CNC(=O)Nc2cc3ccccc3s2)C(=O)N[C@@H](CC(C)C)C(=O)N2C[C@H](O)C[C@H]2C(=O)N[C@@H](Cc2c[nH]c3ccccc23)C(=O)N[C@@H](CCNC(=O)Nc2cc3ccccc3s2)C(=O)N[C@@H](Cc2cn(CC(=O)O)c3ccccc23)C(=O)N1C [Example 3022] ({CH2CO}-Y[NMeA]NP[Dap]([CO-X45])L[Hyp]W[Dab]([CO-X45])[Trp(1-CH2COOH)][NMeNle][NMeNle]LCG-NH2; thioether N-14)
6 | 13 nM | CCCCOc1ccc(NC(=O)NC[C@@H]2NC(=O)[C@@H]3CCCN3C(=O)[C@H](CC(N)=O)NC(=O)[C@H](C)N(C)C(=O)[C@H](Cc3ccc(O)cc3)NC(=O)CSC[C@@H](C(=O)NCC(N)=O)NC(=O)[C@H](CC(C)C)NC(=O)[C@H](CCCC)N(C)C(=O)[C@H](CCCC)N(C)C(=O)[C@H](Cc3cn(CC(=O)O)c4ccccc34)NC(=O)[C@H](CCN)NC(=O)[C@H](Cc3c[nH]c4ccccc34)NC(=O)[C@@H]3C[C@@H](O)CN3C(=O)[C@H](CC(C)C)NC2=O)cc1 [Example 1139] ({CH2CO}-Y[NMeA]NP[Dap]([CO-X39])L[Hyp]W[Dab][Trp(1-CH2COOH)][NMeNle][NMeNle]LCG-NH2; thioether N-14)
7 | 1.5 nM | CCCC[C@H]1C(=O)N(C)[C@@H](CCCC)C(=O)N[C@@H](CC(C)C)C(=O)N[C@H](C(=O)NCC(N)=O)CSCC(=O)N[C@@H](Cc2ccc(O)cc2)C(=O)N(C)[C@@H](C)C(=O)N[C@@H](CC(N)=O)C(=O)N2CCC[C@H]2C(=O)N[C@@H](CNC(=S)Nc2ccc3oc(C)cc3c2)C(=O)N[C@@H](CC(C)C)C(=O)N2C[C@H](O)C[C@H]2C(=O)N[C@@H](Cc2c[nH]c3ccccc23)C(=O)N[C@@H](CCNC(=S)Nc2ccc3oc(C)cc3c2)C(=O)N[C@@H](Cc2cn(CC(=O)O)c3ccccc23)C(=O)N1C [Example 3072] ({CH2CO}-Y[NMeA]NP[Dap](X60)L[Hyp]W[Dab](X60)[Trp(1-CH2COOH)][NMeNle][NMeNle]LCG-NH2; thioether N-14)
8 | 20 nM | CCCC[C@H]1C(=O)N(C)[C@@H](CCCC)C(=O)N[C@@H](CC(C)C)C(=O)N[C@H](C(=O)NCC(N)=O)CSCC(=O)N[C@@H](Cc2ccc(O)cc2)C(=O)N(C)[C@@H](C)C(=O)N[C@@H](CC(N)=O)C(=O)N2CCC[C@H]2C(=O)N[C@@H](CNC(=O)Nc2ccccc2C(F)(F)F)C(=O)N[C@@H](CC(C)C)C(=O)N2C[C@H](O)C[C@H]2C(=O)N[C@@H](Cc2c[nH]c3ccccc23)C(=O)N[C@@H](CCNC(=O)Nc2ccccc2C(F)(F)F)C(=O)N[C@@H](Cc2cn(CC(=O)O)c3ccccc23)C(=O)N1C [Example 1137] ({CH2CO}-Y[NMeA]NP[Dap]([CO-NH(2-CF3-phenyl)])L[Hyp]W[Dab]([CO-NH(2-CF3-phenyl)])[Trp(1-CH2COOH)][NMeNle][NMeNle]LCG-NH2; thioether N-14)
9 | 0.98 nM | CCCC[C@H]1C(=O)N(C)[C@@H](CCCC)C(=O)N[C@@H](CC(C)C)C(=O)N[C@H](C(=O)NCC(N)=O)CSCC(=O)N[C@@H](Cc2ccc(O)cc2)C(=O)N(C)[C@@H](C)C(=O)N[C@@H](CC(N)=O)C(=O)N2CCC[C@H]2C(=O)N[C@@H](CNC(=S)Nc2ccc3c(c2)OCO3)C(=O)N[C@@H](CC(C)C)C(=O)N2C[C@H](O)C[C@H]2C(=O)N[C@@H](Cc2c[nH]c3ccccc23)C(=O)N[C@@H](CCN)C(=O)N[C@@H](Cc2cn(CC(=O)O)c3ccccc23)C(=O)N1C [Example 3065] ({CH2CO}-Y[NMeA]NP[Dap](X16)L[Hyp]W[Dab][Trp(1-CH2COOH)][NMeNle][NMeNle]LCG-NH2; thioether N-14)
10 | 3.2 nM | CCCC[C@H]1C(=O)N(C)[C@@H](CCCC)C(=O)N[C@@H](CC(C)C)C(=O)N[C@H](C(=O)NCC(N)=O)CSCC(=O)N[C@@H](Cc2ccc(O)cc2)C(=O)N(C)[C@@H](C)C(=O)N[C@@H](CC(N)=O)C(=O)N2CCC[C@H]2C(=O)N[C@@H](CNC(=O)c2cc3ccccc3o2)C(=O)N[C@@H](CC(C)C)C(=O)N2C[C@H](O)C[C@H]2C(=O)N[C@@H](Cc2c[nH]c3ccccc23)C(=O)N[C@@H](CCN)C(=O)N[C@@H](Cc2cn(CC(=O)O)c3ccccc23)C(=O)N1C [Example 3034] ({CH2CO}-Y[NMeA]NP[Dap](Benzofuran(2-CO))L[Hyp]W[Dab][Trp(1-CH2COOH)][NMeNle][NMeNle]LCG-NH2; thioether N-14)

Row | SMILES | IC50
11 | CCCC[C@H]1C(=O)N(C)[C@@H](CCCC)C(=O)N[C@@H](CC(C)C)C(=O)N[C@H](C(=O)NCC(N)=O)CSCC(=O)N[C@@H](Cc2ccc(O)cc2)C(=O)N(C)[C@@H](C)C(=O)N[C@@H](CC(N)=O)C(=O)N2CCC[C@H]2C(=O)N[C@@H](CNC(=O)c2c3ccccc3cc3ccccc23)C(=O)N[C@@H](CC(C)C)C(=O)N2C[C@H](O)C[C@H]2C(=O)N[C@@H](Cc2c[nH]c3ccccc23)C(=O)N[C@@H](CCNC(=O)c2c3ccccc3cc3ccccc23)C(=O)N[C@@H](Cc2cn(CC(=O)OC)c3ccccc23)C(=O)N1C [Example 2006] ({CH2CO}-Y[NMeA]NP[Dap](X34)L[Hyp]W[Dab](X34)[Trp(1-CH2CO2Me)][NMeNle][NMeNle]LCG-NH2; thioether N-14) | 1590 nM
12 | CCCC[C@H]1C(=O)N(C)[C@@H](CCCC)C(=O)N[C@@H](CC(C)C)C(=O)N[C@H](C(=O)NCC(N)=O)CSCC(=O)N[C@@H](Cc2ccc(O)cc2)C(=O)N(C)[C@@H](C)C(=O)N[C@@H](CC(N)=O)C(=O)N2CCC[C@H]2C(=O)N[C@@H](CNC(=O)c2c3ccccc3cc3ccccc23)C(=O)N[C@@H](CC(C)C)C(=O)N2C[C@H](O)C[C@H]2C(=O)N[C@@H](Cc2c[nH]c3ccccc23)C(=O)N[C@@H](CCNC(=O)c2c3ccccc3cc3ccccc23)C(=O)N[C@@H](Cc2cn(CC(=O)O)c3ccccc23)C(=O)N1C [Example 2011] ({CH2CO}-Y[NMeA]NP[Dap](X34)L[Hyp]W[Dab](X34)[Trp(1-CH2COOH)][NMeNle][NMeNle]LCG-NH2; thioether N-14) | 4.7 nM
13 | CCCC[C@H]1C(=O)N(C)[C@@H](CCCC)C(=O)N[C@@H](CC(C)C)C(=O)N[C@H](C(=O)NCC(N)=O)CSCC(=O)N[C@@H](Cc2ccc(O)cc2)C(=O)N(C)[C@@H](C)C(=O)N[C@@H](CC(N)=O)C(=O)N2CCC[C@H]2C(=O)N[C@@H](CNC(=O)c2c3ccccc3nc3ccccc23)C(=O)N[C@@H](CC(C)C)C(=O)N2C[C@H](O)C[C@H]2C(=O)N[C@@H](Cc2c[nH]c3ccccc23)C(=O)N[C@@H](CCNC(=O)c2c3ccccc3nc3ccccc23)C(=O)N[C@@H](Cc2cn(CC(=O)OC)c3ccccc23)C(=O)N1C [Example 2003] ({CH2CO}-Y[NMeA]NP[Dap](Acridine9carbonyl)L[Hyp]W[Dab](Acridine9carbonyl)[Trp(1-CH2CO2Me)][NMeNle][NMeNle]LCG-NH2; thioether N-14) | 22.6 nM
